# According to ChEMBL document CHEMBL3297717, “Synthesis and potent ionophoric activity of a squaramide-linked bis(choloyl) conjugate” (Bioorg Med Chem Lett, 2014):
# Active and inactive are the calls of the source. No cut-off for these calls is given here.
# What was measured:
# [1] = Ionophoric activity across egg-yolk L-alpha-phosphatidylcholine-based liposomal membrane assessed as induction of pH discharge in membrane by measuring initial rate constant after 21 mins by Hill plot analysis
# [2] = Ionophoric activity across egg-yolk L-alpha-phosphatidylcholine-based liposomal membrane assessed as chloride efflux after 5 mins
# [3] = Ionophoric activity across egg-yolk L-alpha-phosphatidylcholine-based liposomal membrane assessed as induction of pH discharge in membrane at 3 mol% after 20 mins by pyramine dye-based fluorescence assay in presence of CsCl
# [4] = Ionophoric activity across egg-yolk L-alpha-phosphatidylcholine-based liposomal membrane dispersed in HEPES buffer containing Na2SO4 assessed as chloride efflux at 3 mol% after 5 mins
# [5] = Ionophoric activity across egg-yolk L-alpha-phosphatidylcholine-based liposomal membrane assessed as induction of pH discharge in membrane at 3 mol% after 20 mins by pyramine dye-based fluorescence assay in presence of LiCl
# [6] = Ionophoric activity across egg-yolk L-alpha-phosphatidylcholine-based liposomal membrane assessed as induction of pH discharge in membrane at 3 mol% after 20 mins by pyramine dye-based fluorescence assay in presence of NaBr
# [7] = Ionophoric activity across egg-yolk L-alpha-phosphatidylcholine-based liposomal membrane assessed as induction of pH discharge in membrane at 3 mol% after 20 mins by pyramine dye-based fluorescence assay in presence of NaCl
# [8] = Ionophoric activity across egg-yolk L-alpha-phosphatidylcholine-based liposomal membrane assessed as induction of pH discharge in membrane at 3 mol% after 20 mins by pyramine dye-based fluorescence assay in presence of NaI
# [9] = Ionophoric activity across egg-yolk L-alpha-phosphatidylcholine-based liposomal membrane assessed as induction of pH discharge in membrane after 21 mins by pyramine dye-based fluorescence assay
# [10] = Ionophoric activity across egg-yolk L-alpha-phosphatidylcholine-based liposomal membrane assessed as induction of pH discharge in membrane at 1 to 5 mol% after 21 mins by pyramine dye-based fluorescence assay
# [11] = Ionophoric activity across egg-yolk L-alpha-phosphatidylcholine-based liposomal membrane assessed as induction of pH discharge in membrane at 3 mol% after 20 mins by pyramine dye-based fluorescence assay in presence of KCl
# [12] = Ionophoric activity across egg-yolk L-alpha-phosphatidylcholine-based liposomal membrane assessed as induction of pH discharge in membrane at 3 mol% after 20 mins by pyramine dye-based fluorescence assay in presence of NaNO3
# [13] = Ionophoric activity across egg-yolk L-alpha-phosphatidylcholine-based liposomal membrane assessed as induction of pH discharge in membrane at 3 mol% after 20 mins by pyramine dye-based fluorescence assay in presence of RbCl
Kin [1],Activity [2],Activity [3],Activity [4],Activity [5],Activity [6],Activity [7],Activity [8],EC50 [9],Activity [10],Activity [11],Activity [12],Activity [13],SMILES
2.23 ×10⁻² /min,,,,,,,,,,,,,C[C@H](CCC(=O)NCc1ccc(CNC(=O)CC[C@@H](C)[C@H]2CC[C@H]3[C@@H]4[C@H](O)C[C@@H]5C[C@H](O)CC[C@]5(C)[C@H]4C[C@H](O)[C@]23C)cc1)[C@H]1CC[C@H]2[C@@H]3[C@H](O)C[C@@H]4C[C@H](O)CC[C@]4(C)[C@H]3C[C@H](O)[C@]12C
5.52 ×10⁻² /min,,,,,,,,,,,,,C[C@H](CCC(=O)N[C@@H](CCCCN)C(=O)NCc1ccc(CNC(=O)[C@H](CCCCN)NC(=O)CC[C@@H](C)[C@H]2CC[C@H]3[C@@H]4[C@H](O)C[C@@H]5C[C@H](O)CC[C@]5(C)[C@H]4C[C@H](O)[C@]23C)cc1)[C@H]1CC[C@H]2[C@@H]3[C@H](O)C[C@@H]4C[C@H](O)CC[C@]4(C)[C@H]3C[C@H](O)[C@]12C
0.6 min⁻¹,Dose-dependent effect,Active,Active,Active,inactive,Active,inactive,3.82 mol%,Active,Active,inactive,Active,C[C@H](CCC(=O)Nc1ccc(Nc2c(Nc3ccc(NC(=O)CC[C@@H](C)[C@H]4CC[C@H]5[C@@H]6[C@H](O)C[C@@H]7C[C@H](O)CC[C@]7(C)[C@H]6C[C@H](O)[C@]45C)cc3)c(=O)c2=O)cc1)[C@H]1CC[C@H]2[C@@H]3[C@H](O)C[C@@H]4C[C@H](O)CC[C@]4(C)[C@H]3C[C@H](O)[C@]12C
